Patent publication US6905840B1, “Double motor mutant assay for antifungal agents” (Cytokinetics, Inc., priority 2003, dated 2005)

Columns and labels:
[1] = system: kip3-20(ts) dyn1Δ (DS765) double mutant; test: Benomyl suppression of lethality of the kip3(ts) dyn1 double mutant, spot growth on YPD; assay type: cell-based, Saccharomyces cerevisiae; details: 37° C., solid YPD medium with 1% DMSO, 5 or 10 μg/ml benomyl, 3 d; little growth in the absence of benomyl
Procedure: Since one phenotype of the kip3 single mutant and the kip3(ts) dyn1 double mutant is increased microtubule abundance, it was tested whether the microtubule-depolymerizing drug benomyl could suppress the lethality of the kip3(ts) dyn1 double mutant.

[2] = system: kip3-30(ts) kar3Δ (DS752) double mutant; test: Benomyl suppression of lethality of the kip3-30(ts) kar3 double mutant, spot growth on YPD; assay type: cell-based, Saccharomyces cerevisiae; details: medium containing a low concentration of benomyl, restrictive temperature (FIG. 1C)

Structure (SMILES): CCCCNC(=O)n1c(NC(=O)OC)nc2ccccc21 [benomyl]
- growth of the kip3(ts) dyn1 double mutant (suppression of lethality) [1]: significant growth
- lethality of the kip3-30(ts) kar3 double mutant [2]: partially suppressed
